In PubChem BioAssay (NCI):
“And” between values parts separate entries of the source, which are not always exact repeats. Identical values can stand only once.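 Five concentrations, 48 hours, 96-well plates. GI50 is the concentration that inhibits growth by half. TGI is the concentration that stops growth completely.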

What was measured:
Experiment in all cases: NCI anticancer screen, dose series, 48 h
MOLT-4 leukemia = system: MOLT-4 leukemia
SNB-19 CNS = system: SNB-19 CNS
HOP-62 NSCLC = system: HOP-62 NSCLC
RXF 393 renal = system: RXF 393 renal
MCF7 breast = system: MCF7 breast
HL-60(TB) leukemia = system: HL-60(TB) leukemia
NCI-H23 lung = system: NCI-H23 lung
UACC-257 melanoma = system: UACC-257 melanoma
UACC-62 melanoma = system: UACC-62 melanoma
TK-10 renal = system: TK-10 renal

SMILES	GI50 (MOLT-4 leukemia)	TGI (MOLT-4 leukemia)	GI50 (SNB-19 CNS)	TGI (SNB-19 CNS)	GI50 (HOP-62 NSCLC)	TGI (HOP-62 NSCLC)	GI50 (RXF 393 renal)	TGI (RXF 393 renal)	GI50 (MCF7 breast)	TGI (MCF7 breast)	GI50 (HL-60(TB) leukemia)	TGI (HL-60(TB) leukemia)	GI50 (NCI-H23 lung)	TGI (NCI-H23 lung)	GI50 (UACC-257 melanoma)	TGI (UACC-257 melanoma)	TGI (UACC-62 melanoma)	GI50 (TK-10 renal)	TGI (TK-10 renal)	GI50 (UACC-62 melanoma)
COc1cnc2c(c1)C(=O)c1c-2n(CCCN2CCN(C)CC2)c(=O)c2cc(Cl)ccc12	345 nM	5.33 µM	13.8 µM	78.9 µM	950 nM	36 µM	1900 nM	13.3 µM	487 nM	21.7 µM	18000 nM	42.4 µM	6270 nM	24.6 µM	4040 nM	22.3 µM				
CCOC(=O)C1=C(C)N(NC(=O)c2ccccc2)C2(O)CCCC12C(=O)OCC (stereo unspecified)		> 100 µM		> 100 µM		> 100 µM		> 100 µM				> 100 µM				> 100 µM	> 100 µM			
Nc1ccn([C@@H]2C=C(CO)[C@@H](O)[C@H]2O)c(=O)n1	17.1 nM			500 µM and > 625 µM	59.3 nM and 74.9 nM			201 µM and 44.8 µM					114 nM		2970 nM and 1120 nM	470 µM	135 µM and 224 µM	184 nM	431 µM	
COc1cc(-c2nc3ccccc3s2)ccc1OCc1nc2n(n1)S(=O)(=O)c1ccccc1N2C	> 100000 nM	> 100 µM	> 100 µM	> 100 µM	> 100000 nM	> 100 µM			> 100000 nM	> 100 µM	> 100000 nM	> 100 µM	> 100000 nM	> 100 µM	> 100000 nM	> 100 µM	> 100 µM	> 100000 nM	> 100 µM	> 100000 nM
C/C(=C\c1ccn(-c2ccc(N)cc2)n1)[C@@H]1C[C@@H]2O[C@]2(C)CCC[C@H](C)[C@H](O)[C@@H](C)C(=O)C(C)(C)[C@@H](O)CC(=O)O1	48.6 nM	> 50 µM	0.29 µM	> 50 µM	68.2 nM	> 50 µM	47.8 nM	0.406 µM	15.2 nM	> 50 µM	43.7 nM	> 50 µM	59.4 nM	> 50 µM			> 50 µM	124 nM	> 50 µM	157 nM
CSC(=S)NNC(=O)c1ccncc1		55.6 µM		53.1 µM		70.2 µM		31.8 µM				39.9 µM		33.2 µM		56.7 µM	31.1 µM		75.6 µM	
O=C1c2ccccc2C(=O)c2nc(-c3ccccc3)c(-c3ccccc3)nc21		> 100 µM		> 100 µM		> 100 µM		> 100 µM						> 100 µM			> 100 µM		> 100 µM	
COC(=O)C1C(=O)O[C@@H](c2ccc(OC)cc2OC)C1C(=O)OC (stereo partly specified)		> 100 µM		> 100 µM		> 100 µM		> 100 µM				> 100 µM		> 100 µM		> 100 µM	> 100 µM		> 100 µM	
O=C(O)/C(Cl)=C(\Cl)C(=O)Nc1ccccc1		> 100 µM		> 100 µM		> 100 µM		> 100 µM						> 100 µM		> 100 µM	> 100 µM		> 100 µM	
CC1C(=O)N(C)C2(CO)C(=O)O[C@H](C)C12O (stereo partly specified)		> 100 µM		> 100 µM		> 100 µM		> 100 µM						> 100 µM			> 100 µM		> 100 µM	
COc1cc2c(cc1OC)[C@@]1(C)C(=O)c3cc4c(cc3[C@H]1N(C)C2=O)OCO4	33300 nM	> 100 µM	> 100 µM	> 100 µM	> 100000 nM	> 100 µM	26900 nM	> 100 µM	65300 nM	> 100 µM			> 100000 nM	> 100 µM	23700 nM	91.9 µM	> 100 µM	67300 nM	> 100 µM	26000 nM
CCC[CH2][Sn]([CH2]CCC)([S]C1=NCCS1)[S]C1=NCCS1	157 nM	0.732 µM	0.3 µM	1.12 µM	2100 nM	3.55 µM	84.6 nM	0.301 µM			298 nM	0.881 µM	170 nM	0.67 µM	323 nM	1.44 µM	0.814 µM	390 nM	1.11 µM	177 nM
CC1OC(O)CC(OC(=O)c2ccccc2)C1OC(=O)c1ccccc1 (stereo unspecified)		39 µM		> 100 µM		> 100 µM		39.3 µM				36 µM		30.8 µM		29.4 µM	31.5 µM		> 100 µM	
Cc1ccc(S(=O)(=O)N/N=C(\C(=O)Nc2cccc([N+](=O)[O-])c2)c2nc3ccc([N+](=O)[O-])cc3[nH]c2=O)cc1		> 100 µM		> 100 µM		> 100 µM		> 100 µM						> 100 µM		> 100 µM	> 100 µM			
O=C(C=Nc1ccccc1C(=O)[O-])c1cccs1.O=C(C=Nc1ccccc1C(=O)[O-])c1cccs1.[Cu+2]		> 100 µM		> 100 µM		> 100 µM						> 100 µM		> 100 µM		> 100 µM	> 100 µM		> 100 µM	
ON(CCc1ccccn1)Cc1ccccc1		> 100 µM		> 100 µM		> 100 µM		> 100 µM		> 100 µM				> 100 µM		> 100 µM	> 100 µM		> 100 µM	
Cc1ccc2sc3c(NCCCNCCO)nc4ccccc4c3c(=O)c2c1	1810 nM	3.55 µM			1270 nM	2.87 µM	1500 nM	2.88 µM	1610 nM	3.17 µM	1860 nM	3.58 µM	1740 nM	3.35 µM	1870 nM	3.76 µM	3.14 µM			1690 nM
CNC1C(O)CC(OC2C/C=C(\C)C/C(C)=C/C=C/CCC(C)CNC(=O)/C=C/C=C/C2C)OC1C (stereo unspecified)				8.31 µM				2.43 µM				0.37 µM		2.62 µM		1.65 µM	0.855 µM		3.17 µM	
